Read-outs that look alike come from different tables or passages of the source.
Legend:
Format in all cases: cell-based
Aβ-38 = assay: MSD Human (6E10) Ab 3-PLEX elisa, conditioned media of 2B7 cells: Aβ-38; details: Homo sapiens; for IC50: Aβ-38 (superscript a); for inhibition at 20 µM: Aβ-38, 20 μM
Method in brief: (§1)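 We dose confluent 2B7 cells for 5 hours at 37° C, keeping DMSO at 1%. Diluted media then incubates on antibody-coated plates either overnight at 4 degrees C or 2 hours at room temp.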

Aβ-42 = assay: MSD Human (6E10) Ab 3-PLEX elisa, conditioned media of 2B7 cells: Aβ-42; details: Homo sapiens; for IC50: Aβ-42 (superscript c); for inhibition at 20 µM: Aβ-42, 20 μM
Method in brief: as §1

Aβ-40 = assay: MSD Human (6E10) Ab 3-PLEX elisa, conditioned media of 2B7 cells: Aβ-40; details: Homo sapiens; for IC50: Aβ-40 (superscript b); for inhibition at 100 µM: Aβ-40, 100 μM; for inhibition at 20 µM: Aβ-40, 20 μM
Method in brief: as §1

SMILES	IC50 (Aβ-38; read-out: IC50 range) [µM]	IC50 (Aβ-42; read-out: IC50 range) [µM]	IC50 (Aβ-40; read-out: IC50 range) [µM]	IC50 (Aβ-38; read-out: 50% reduction value) [µM]	inhibition at 20 µM (Aβ-38) [%]	inhibition at 20 µM (Aβ-42) [%]	IC50 (Aβ-40; read-out: 50% reduction value) [µM]	inhibition at 20 µM (Aβ-40) [%]	other results
C[C@@H]1CC(CN2CCC[C@@H]2C(=O)O)OC2[C@H]1[C@@]1(C)CC[C@@]34C[C@@]35CC[C@H](O[C@H]3CN(C(=O)CC6CC6)CCO3)C(C)(C)[C@@H]5CCC4[C@]1(C)[C@H]2O (stereo partly shown)	> 10	> 10	> 10	–	–	–	–	–	–
C[C@@H]1CC(CN(C)CC(=O)O)OC2[C@H]1[C@@]1(C)CC[C@@]34C[C@@]35CC[C@H](O[C@H]3CN(C(=O)CC6CC6)CCO3)C(C)(C)[C@@H]5CCC4[C@]1(C)[C@H]2O (stereo partly shown)	> 10	> 10	> 10	–	–	–	–	–	–
C[C@@H]1CC(COC(N)=O)OC2[C@H]1[C@@]1(C)CC[C@@]34C[C@@]35CC[C@H](O[C@H]3CN(C(=O)CC6CC6)CCO3)C(C)(C)[C@@H]5CCC4[C@]1(C)[C@H]2O (stereo partly shown)	< 1	1 to 10	> 10	–	–	–	–	–	–
C[C@@H]1CC(COC(=O)N2CCC2)OC2[C@H]1[C@@]1(C)CC[C@@]34C[C@@]35CC[C@H](O[C@H]3CN(C(=O)CC6CC6)CCO3)C(C)(C)[C@@H]5CCC4[C@]1(C)[C@H]2O (stereo partly shown)	< 1	1 to 10	1 to 10	–	–	–	–	–	–
COC(=O)NCCC1C[C@@H](C)C2C(O1)[C@H](O)[C@@]1(C)[C@@H]3CC[C@H]4C(C)(C)[C@@H](OC5CN(C(=O)CC6CC6)CCO5)CC[C@@]45C[C@@]35CC[C@]21C (stereo partly shown)	1 to 10	1 to 10	–	–	–	–	–	–	inhibition at 100 µM (Aβ-40): 25 to 75%
C[C@@H]1CC(CC(=O)O)OC2[C@H]1[C@@]1(C)CC[C@@]34C[C@@]35CC[C@H](O[C@H]3CN(C(=O)CC6CC6)CCO3)C(C)(C)[C@@H]5CCC4[C@]1(C)[C@H]2O (stereo partly shown)	> 10	1 to 10	> 10	–	–	–	–	–	–
C[C@@H]1CC(CCC(N)=O)OC2C1[C@@]1(C)CC[C@@]34C[C@@]35CC[C@H](OC3CN(C(=O)CC6CC6)CCO3)C(C)(C)[C@@H]5CC[C@H]4[C@]1(C)[C@H]2O (stereo partly shown)	1 to 10	1 to 10	> 10	–	–	–	–	–	–
COC(=O)OCC1C[C@@H](C)[C@H]2C(O1)[C@H](O)[C@@]1(C)C3CC[C@H]4C(C)(C)[C@@H](OC5CN(C(=O)CC6CC6)CCO5)CC[C@@]45C[C@@]35CC[C@]21C (stereo partly shown)	1 to 10	–	–	–	–	–	–	–	inhibition at 100 µM (Aβ-42; Aβ-42, 100 μM): 25 to 75%; inhibition at 100 µM (Aβ-40): 25 to 75%
C[C@@H]1CC(C(=O)O)OC2[C@H]1[C@@]1(C)CC[C@@]34C[C@@]35CC[C@H](OC3CN(C(=O)CC6CC6)CCO3)C(C)(C)[C@@H]5CCC4[C@]1(C)[C@H]2O (stereo partly shown)	> 10	1 to 10	> 10	–	–	–	–	–	–
C[C@@H]1CC(COC(N)=O)OC2[C@H]1[C@@]1(C)CC[C@@]34C[C@@]35CC[C@H](O)C(C)(C)[C@@H]5CCC4[C@]1(C)[C@H]2O (stereo partly shown)	–	–	–	> 10	25 to 75	25 to 75	> 10	–	–
CNC(=O)OCC1C[C@@H](C)[C@H]2C(O1)[C@H](O)[C@@]1(C)C3CC[C@H]4C(C)(C)[C@@H](O)CC[C@@]45C[C@@]35CC[C@]21C (stereo partly shown)	–	–	–	1 to 10	25 to 75	–	–	25 to 75	IC50 (Aβ-42; read-out: 50% reduction value): 1 to 10 µM
C[C@@H]1CC(COC(=O)N(C)C)OC2[C@H]1[C@@]1(C)CC[C@@]34C[C@@]35CC[C@H](O)C(C)(C)[C@@H]5CCC4[C@]1(C)[C@H]2O (stereo partly shown)	–	–	–	–	–	25 to 75	> 10	25 to 75	inhibition at 4 µM (Aβ-38; Aβ-38, 4 μM): 25 to 75%
C[C@@H]1CC(C(=O)O)OC2C1[C@@]1(C)CC[C@@]34C[C@@]35CC[C@H](OC3CN(C6COC6)CCO3)C(C)(C)[C@@H]5CC[C@H]4[C@]1(C)[C@H]2O (stereo partly shown)	–	–	–	–	< 25	< 25	–	< 25	–
C[C@@H]1CC(CNC(C(=O)O)C(F)(F)F)OC2[C@H]1[C@@]1(C)CC[C@@]34C[C@@]35CC[C@H](O[C@H]3CN(C6COC6)CCO3)C(C)(C)[C@@H]5CCC4[C@]1(C)[C@H]2O (stereo partly shown)	–	–	–	–	< 25	25 to 75	–	25 to 75	–
CC(=O)OCC1C[C@@H](C)[C@H]2C(O1)[C@H](O)[C@@]1(C)C3CC[C@H]4C(C)(C)[C@@H](O[C@H]5CN(C6COC6)CCO5)CC[C@@]45C[C@@]35CC[C@]21C (stereo partly shown)	–	–	–	–	25 to 75	< 25	–	< 25	–
C[C@@H]1CC(COC(=O)C2CCOCC2)OC2[C@H]1[C@@]1(C)CC[C@@]34C[C@@]35CC[C@H](O[C@H]3CN(C6COC6)CCO3)C(C)(C)[C@@H]5CCC4[C@]1(C)[C@H]2O (stereo partly shown)	–	–	–	–	25 to 75	25 to 75	–	25 to 75	–
C[C@@H]1C[C@](C)(CO)OC2[C@H]1[C@@]1(C)CC[C@@]34C[C@@]35CC[C@H](O)C(C)(C)[C@@H]5CCC4[C@]1(C)[C@H]2O (stereo partly shown)	–	–	–	–	25 to 75	< 25	–	< 25	–
COC(=O)O[C@H](C(C)C)C1C[C@@H](C)[C@H]2C(O1)[C@H](O)[C@@]1(C)C3CC[C@H]4C(C)(C)[C@@H](O)CC[C@@]45C[C@@]35CC[C@]21C (stereo partly shown)	–	–	–	–	25 to 75	25 to 75	–	25 to 75	–
CCOC(=O)CO[C@@H]([C@H]1C[C@@H](C)[C@H]2[C@H](O1)[C@H](O)[C@@]1(C)C3CC[C@H]4C(C)(C)[C@@H](O[C@H]5CN(C6COC6)CCO5)CC[C@@]45C[C@@]35CC[C@]21C)C(C)(C)O (stereo partly shown)	–	–	–	–	25 to 75	25 to 75	> 10	–	–
CNC(=O)O[C@@H]([C@H]1C[C@@H](C)[C@H]2[C@H](O1)[C@H](O)[C@@]1(C)C3CC[C@H]4C(C)(C)[C@@H](O)CC[C@@]45C[C@@]35CC[C@]21C)C(C)(C)O (stereo partly shown)	–	–	–	–	25 to 75	25 to 75	–	25 to 75	–
CC(C)[C@@H](OC(=O)C1CCOCC1)C1C[C@@H](C)[C@H]2C(O1)[C@H](O)[C@@]1(C)[C@@H]3CC[C@H]4C(C)(C)C(O)CC[C@@]45C[C@@]35CC[C@]21C (stereo partly shown)	> 10	1 to 10	1 to 10	–	–	–	–	–	–
CCOCC1C[C@@H](C)[C@H]2C(O1)[C@H](O)[C@@]1(C)C3CC[C@H]4C(C)(C)C(O[C@H]5CN(C6COC6)CCO5)CC[C@@]45C[C@@]35CC[C@]21C (stereo partly shown)	1 to 10	–	–	–	25 to 75	< 25	–	< 75	–
CCNC(=O)O[C@H](C(C)C)C1C[C@@H](C)[C@H]2C(O1)[C@H](O)[C@@]1(C)C3CC[C@H]4C(C)(C)C(OC(=O)NC5CNC5)CC[C@@]45C[C@@]35CC[C@]21C (stereo partly shown)	< 1	< 1	> 10	< 1	–	–	1 to 10	–	IC50 (Aβ-42; read-out: 50% reduction value): < 1 µM
CNC(=O)OC1CC[C@]23C[C@]24CC[C@]2(C)[C@@H]5C(OC([C@H](OC(=O)N6CCC6)C(C)C)C[C@H]5C)[C@H](O)[C@@]2(C)C4CC[C@H]3C1(C)C (stereo partly shown)	< 1	< 1	1 to 10	< 1	–	–	1 to 10	–	IC50 (Aβ-42; read-out: 50% reduction value): < 1 µM
CC(C)[C@@H](OC(=O)N1CCC1)C1C[C@@H](C)[C@H]2C(O1)[C@H](O)[C@@]1(C)C3CC[C@H]4C(C)(C)C(OC(=O)N5CCn6c(nnc6C(F)(F)F)C5)CC[C@@]45C[C@@]35CC[C@]21C (stereo partly shown)	–	–	–	< 1	–	–	–	25 to 75	IC50 (Aβ-42; read-out: 50% reduction value): < 1 µM
CC(C)[C@@H](OC(=O)N1CCC1)C1C[C@@H](C)[C@H]2C(O1)[C@H](O)[C@@]1(C)C3CC[C@H]4C(C)(C)C(OC(=O)N5CC6(COC6)C5)CC[C@@]45C[C@@]35CC[C@]21C (stereo partly shown)	–	–	–	< 1	–	–	> 10	–	IC50 (Aβ-42; read-out: 50% reduction value): < 1 µM
CC(C)[C@@H](OC(=O)N1CCC1)C1C[C@@H](C)[C@H]2C(O1)[C@H](O)[C@@]1(C)C3CC[C@H]4C(C)(C)C(OC(=O)NC5COC5)CC[C@@]45C[C@@]35CC[C@]21C (stereo partly shown)	–	–	–	< 1	–	–	> 10	–	IC50 (Aβ-42; read-out: 50% reduction value): < 1 µM
CC(C)[C@@H](OC(=O)N1CCC1)C1C[C@@H](C)[C@H]2C(O1)[C@H](O)[C@@]1(C)C3CC[C@H]4C(C)(C)C(OC(=O)N5CCn6cnnc6C5)CC[C@@]45C[C@@]35CC[C@]21C (stereo partly shown)	–	–	–	< 1	–	–	> 10	–	IC50 (Aβ-42; read-out: 50% reduction value): < 1 µM
CC(C)[C@@H](OC(=O)N1CCC1)C1C[C@@H](C)[C@H]2C(O1)[C@H](O)[C@@]1(C)C3CC[C@H]4C(C)(C)C(OC(=O)N5CCn6ccnc6C5)CC[C@@]45C[C@@]35CC[C@]21C (stereo partly shown)	–	–	–	< 1	–	–	> 10	–	IC50 (Aβ-42; read-out: 50% reduction value): < 1 µM

From patent publication US20110251379A1, “COMPOUNDS USEFUL FOR TREATING NEURODEGENERATIVE DISORDERS” (Satori Pharmaceuticals, Inc., priority 2010, published 2011)
